From patent US12421211B2, “Heterocyclic compounds” (Hoffmann-La Roche Inc., priority 2021, dated 2025)
≈ marks a conversion by molar mass, not a printed value. Counter-ions that a name gives are not always drawn.

Columns and labels:
[1] = test system: Acinetobacter baumannii ATCC17961; experiment: Antimicrobial susceptibility testing: 90% growth inhibitory concentration (IC90) determination; assay type: cell-based; conditions: Acinetobacter baumannii, ATCC17961, 16 h, 90% growth inhibitory concentration, Acinetobacter baumannii ATCC17961, Iso-Sensitest broth, OD 600 nm over 16 h; read-out: ATCC 17961 IC90
In short: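 A. baumannii ATCC17961 at ~5×10^5 CFU/ml in Iso-Sensitest broth exposed to 10-point twofold dilutions (e.g. 50–0.097 μM final), 35±2° C. OD600 read every 20 minutes over 16h; IC50 and IC90 derived from inhibition during logarithmic growth.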

[2] = test system: Acinetobacter baumannii ATCC17978; experiment: Minimal Inhibitory Concentration (MIC) assay; assay type: cell-based; conditions: Acinetobacter baumannii ATCC17978, CAMHB medium, 20 hours at 35±2° C., visual reading; read-out: MIC AB. ATCC17978
Description: Minimal Inhibitory Concentration Protocol (MIC) Assay:
Table 2 provides the in vitro potency of the compounds of present invention obtained against the strain Acinetobacter baumannii ATCC17978, which was assessed by an MIC (Minimal Inhibitory Concentration) assay as follows.
Test compounds were prepared from 10 mM DMSO stock solutions. The top dose was diluted from 10 mM to 2.5 mM by DMSO, followed by serial 2-fold 11 points dilutions in DMSO in a master plate (Greiner, Cat No: 651201). 2 μL compounds were transferred from the master plate into a new 96-well assay plate (Costar, 3599).
The growth medium […] Mueller Hinton Broth (CAMHIB) was prepared by adding 22 g powder (BD, 212322) in 1 L purified water, autoclaved, and supplemented with sterilized CaCl2 (20 mg per liter) and MgCl2 (10 mg per liter).
Vials of each of the test microorganisms were maintained frozen in the vapor phase of a liquid nitrogen freezer. Took out the bacterial strain ATCC 17978 from liquid nitrogen freezer, thawed it at room temperature, and diluted the bacterial in the CAMHB medium to achieve a final inoculum of 2×10^5 CFU/mL. 98 μL of the adjusted bacteria suspension was dispensed to the assay plate and pipetted 5 times.
Then the assay plates were incubated for 20 hours at 35±2° C. in ambient air with humidity. Following incubation, MIC […] value, the lowest concentration of drug that inhibits visible growth of the microorganism, was recorded by visual judgment of bacterial growth through magnification mirror of MIC reader, and the assay plates were photographed with Qcount system as image raw data. Meanwhile, the D600 of assay plates was recorded with SpectraMax Plus384 as GD raw data.

Compound	IC90 [1] [nM]	MIC [2] [µM]
COc1cccc(-c2[nH]ncc2-c2ccc(-c3cnc(C(=O)Nc4ccc(C(=O)N5CCN(C(=O)C6CC[N+](C)(C)CC6)CC5)c(Cl)c4)n3C)c(F)c2F)c1 [Example I3, N-[3-chloro-4-[4-(1,1-dimethylpiperidin-1-ium-4-carbonyl)piperazine-1-carbonyl]phenyl]-5-[2,3-difluoro-4-[5-(3-methoxyphenyl)-1H-pyrazol-4-yl]phenyl]-1-methyl-imidazole-2-carboxamide; formate]	398	1.81
COCCn1cc(-c2ccc(-c3cnc(C(=O)Nc4ccc(C(=O)N5CCN(C(=O)C[N+]6(C)CCC(O)(CO)CC6)CC5)c(Cl)c4)n3C)c(F)c2F)c(C)n1 (stereo not drawn) [Example D18, N-[3-chloro-4-[4-[2-[4-hydroxy-4-(hydroxymethyl)-1-methyl-piperidin-1-ium-1-yl]acetyl]piperazine-1-carbonyl]phenyl]-5-[2,3-difluoro-4-[1-(2-methoxyethyl)-3-methyl-pyrazol-4-yl]phenyl]-1-methyl-imidazole-2-carboxamide; formate]	58	1.23
Cn1c(-c2ccc(-c3cn[nH]c3-c3ccccn3)c(F)c2F)cnc1C(=O)Nc1ccc(C(=O)N2CCN(C(=O)C3CC[N+](C)(C)CC3)CC2)c(Cl)c1 [Example I1, N-[3-chloro-4-[4-(1,1-dimethylpiperidin-1-ium-4-carbonyl)piperazine-1-carbonyl]phenyl]-5-[2,3-difluoro-4-[5-(2-pyridyl)-1H-pyrazol-4-yl]phenyl]-1-methyl-imidazole-2-carboxamide; formate]	432	2.32
COCCn1cc(-c2ccc(-c3cnc(C(=O)Nc4ccc(C(=O)N5CCN(C(=O)C6CC[N+](C)(C)CC6)CC5)c(Cl)c4)n3C)c(F)c2F)c(CF)n1 [Example F29, N-[3-chloro-4-[4-(1,1-dimethylpiperidin-1-ium-4-carbonyl)piperazine-1-carbonyl]phenyl]-5-[2,3-difluoro-4-[3-(fluoromethyl)-1-(2-methoxyethyl)pyrazol-4-yl]phenyl]-1-methyl-imidazole-2-carboxamide; chloride]	280	4.73
COCCn1nc(C)c(-c2ccc(-c3cnc(C(=O)Nc4ccc(C(=O)N5CCN(C(=O)C6CC[N+](C)(C)CC6O)CC5)c(Cl)c4)n3C)c(F)c2F)c1C (stereo not drawn) [Example D4, N-[3-chloro-4-[4-(3-hydroxy-1,1-dimethyl-piperidin-1-ium-4-carbonyl)piperazine-1-carbonyl]phenyl]-5-[2,3-difluoro-4-[1-(2-methoxyethyl)-3,5-dimethyl-pyrazol-4-yl]phenyl]-1-methyl-imidazole-2-carboxamide; formate]	178	1.56

The remaining compounds from weak to strong by MIC [2], led by results:

IC90 [1] [nM]	MIC [2] [µM]	Compound
153	1.2	COCCn1nc(C)c(-c2ccc(-c3cnc(C(=O)Nc4ccc(C(=O)N5CCN(C(=O)C[N+]6(C)C[C@@H](O)[C@H](O)C6)CC5)c(Cl)c4)n3C)c(F)c2F)c1C (racemic) [Example C12, N-[3-chloro-4-[4-[2-[(3R,4R)-3,4-dihydroxy-1-methyl-pyrrolidin-1-ium-1-yl]acetyl]piperazine-1-carbonyl]phenyl]-5-[2,3-difluoro-4-[1-(2-methoxyethyl)-3,5-dimethyl-pyrazol-4-yl]phenyl]-1-methyl-imidazole-2-carboxamide; formate]
97	1.19	COCCn1cc(-c2ccc(-c3cnc(C(=O)Nc4ccc(C(=O)N5CCN(C(=O)C6CC[N+](C)(C)CC6)CC5)c(Cl)c4)n3C)c(F)c2F)c(Cl)n1 [Example F30, N-[3-chloro-4-[4-(1,1-dimethylpiperidin-1-ium-4-carbonyl)piperazine-1-carbonyl]phenyl]-5-[4-[3-chloro-1-(2-methoxyethyl)pyrazol-4-yl]-2,3-difluoro-phenyl]-1-methyl-imidazole-2-carboxamide; formate]
110	0.6	COCCn1ncc(-c2ccc(-c3c(Cl)nc(C(=O)Nc4ccc(C(=O)N5CCN(C(=O)C6CC[N+](C)(C)CC6)CC5)c(Cl)c4)n3C)c(F)c2F)c1C [Example F53, 4-chloro-N-[3-chloro-4-[4-(1,1-dimethylpiperidin-1-ium-4-carbonyl)piperazine-1-carbonyl]phenyl]-5-[2,3-difluoro-4-[1-(2-methoxyethyl)-5-methyl-pyrazol-4-yl]phenyl]-1-methyl-imidazole-2-carboxamide; formate]
< 20	0.45 (≈ 0.313 µg/mL)	COCCn1ncc(-c2ccc(-c3cnc(C(=O)Nc4ccc(C(=O)N5CCN(C(=O)C6CCCN6)CC5)c(Cl)c4)n3C)c(F)c2F)c1C (stereo not drawn) [Example D29, N-[3-chloro-4-[4-(pyrrolidine-2-carbonyl)piperazine-1-carbonyl]phenyl]-5-[2,3-difluoro-4-[1-(2-methoxyethyl)-5-methyl-pyrazol-4-yl]phenyl]-1-methyl-imidazole-2-carboxamide; 2,2,2-trifluoroacetic acid]
